Measured values published in PMC8325119, “A Novel Class of Functionalized Synthetic Fluoroquinolones with Dual Antiproliferative - Antimicrobial Capacities” (Asian Pacific Journal of Cancer Prevention : APJCP, 2021).
In brackets after ≈: the same amount, converted by molar mass. Several values for one entry are separate records, joined by “and”; a condition that tells them apart may be missing. Equal values may be shown once. Read-outs that look alike come from different tables or passages of the source.

Tests used:
[1] = test system: Staphylococcus aureus (S. aureus) ATCC 6538; assay: Quantitative antimicrobial assessment (MIC) against S. aureus; type: cell-based; conditions: for Antibacterial activity (in words): esters vs free acid, Gram positive strain context; for MIC potency compared with ciprofloxacin, S. aureus: in words; for MIC: Staphylococcus aureus, ATCC6538, Gram positive, ATCC 6538
A549 cell line = assay: SRB cytotoxicity assay, A549 lung cancer cell line; conditions: Homo sapiens, A549, 72 h, read-out: Cytotoxicity IC50 value, A549 cell line
Protocol: (§1) All reagents and chemicals of analytical grade were obtained from Sigma (Dorset, UK); unless stated otherwise. All chemicals, reagents and solvents (of analytical grade) were used directly without further purification. MCF7 cell line ATCC® HTB-22™, T47D cell line ATCC® HTB-133™, K562 cell line ATCC® CCL-243™, Panc1 cell line ATCC® CRL-1469™. A375.S2 cell line ATCC® CRL-1872™, A549 cell line ATCC® CCL-185™, HELA cell line ATCC® CCL-2™ were cultured in Dulbecco’s modified eagle’s medium (DMEM). (DMEM) containing foetal bovine serum (FBS) (Bio Whittaker, Verviers, Belgium), 4-(2-hydroxyethyl)-1-piperazine ethane sulfonic acid (HEPES) Buffer, L-glutamine, gentamicin, penicillin, and streptomycin sulphate (Sigma, St. Luis, MO, USA), trypsin, trypan blue, Ciprofloxacin HCl from Aarti drugs Ltd/India, was a kind gift from Pharma International Company- Amman; Fluconazole from Neopharma, United Arab Emirates, a kind gift from Pharmaceutical Research Unit, Amman; Trypon soya agar (TSA), trypon soya broth (TSB), sabouraud dextrose agar (SDA) were obtained from Liofilchem (Italy) or Oxoid LTD (Basingstoke, England), they were reconstituted and sterilized by autoclave at 121 °C for 15 min.
(§2) The cytotoxicity measurements were determined using Sulforhodamine B (SRB) colorimetric assay for cytotoxicity screening. The mechanism of reduction of cell viability was adopted as described previously (Arabiyat et al., 2016a,b; 2017; Alabsi et al., 2018; Jumah, 2018; AlShahrabi et al., 2020). Human periodontal ligament fibroblasts (PDL) are a primary normal cell culture for verification of selective cytotoxicity. […] Selectivity ratio as indicative factor of the safety of compounds was calculated by dividing IC50 of tested compound on normal fibroblasts by IC50 of the same compound on specific pathological cell line (Hoffman et al., 2011).

A375.S2 cell line = assay: SRB cytotoxicity assay, A375.S2 melanoma cell line; conditions: Homo sapiens, A375-S2, 72 h, read-out: Cytotoxicity IC50 value, A375.S2 cell line
Protocol: as §1, §2

MCF7 cell line = assay: SRB cytotoxicity assay, MCF7 breast cancer cell line; conditions: Homo sapiens, MCF7, 72 h, read-out: Cytotoxicity IC50 value, MCF7 cell line
Protocol: as §1, §2

HELA cell line = assay: SRB cytotoxicity assay, HELA cervical cancer cell line; conditions: Homo sapiens, HeLa, 72 h
Protocol: as §1, §2

K562 cell line = assay: SRB cytotoxicity assay, K562 leukaemia cell line; conditions: for IC50: Homo sapiens, K562, 72 h
Protocol: as §1, §2

PANC 1 cell line = assay: SRB cytotoxicity assay, PANC 1 pancreatic cancer cell line; conditions: Homo sapiens, PANC-1, 72 h, read-out: Cytotoxicity IC50 value, PANC 1 cell line
Protocol: as §1, §2

T47D cell line = assay: cells; conditions: Homo sapiens, T47D, 72 h, read-out: Cytotoxicity IC50 value, T47D cell line
Protocol: as §1, §2

PDL Fibroblasts = assay: SRB cytotoxicity on normal periodontal ligament fibroblasts, selective cytotoxicity; type: cell-based, Human; conditions: for IC50: Homo sapiens, Fibroblast, normal fibroblasts, SRB, 72 h, mean ± SD; for Selectivity index SI (K562): IC50 on PDL fibroblasts divided by IC50 on K562; for Selectivity index SI (A375.S2): IC50 on PDL fibroblasts divided by IC50 on A375.S2
Protocol: as §2

[2] = read-out: Cytotoxicity IC50 value, HELA cell line, SRB, 72 h, 0.1-200 μg/mL range, mean ± SD, value in brackets
[3] = read-out: Cytotoxicity IC50 value, HELA cell line, SRB, 72 h, 0.1-200 μg/mL range, mean ± SD, NI = lack of cytotoxicity in range
[4] = read-out: Cytotoxicity IC50 value, K562 cell line, SRB, 72 h, 0.1-200 μg/mL range, mean ± SD, value in brackets
[5] = read-out: Cytotoxicity IC50 value, K562 cell line, SRB, 72 h, 0.1-200 μg/mL range, mean ± SD, NI = lack of cytotoxicity in range
[6] = 0.1-200 μg/mL range, NI = lack of cytotoxicity in range

SMILES | Antibacterial activity (in words) [1] | IC50 (A549 cell line) | IC50 (A375.S2 cell line) | IC50 (MCF7 cell line) | IC50 (HELA cell line; [2]) | IC50 (HELA cell line; [3]) | IC50 (K562 cell line; [4]) | IC50 (K562 cell line; [5]) | IC50 (PANC 1 cell line) | IC50 (T47D cell line) | IC50 (PDL Fibroblasts; [6]) | IC50 (PDL Fibroblasts; value in brackets) | Selectivity index SI (MCF7) (PDL Fibroblasts; IC50 on PDL fibroblasts divided by IC50 on MCF7) | MIC potency compared with ciprofloxacin, S. aureus [1] | MIC [1] | Selectivity index SI (K562) (PDL Fibroblasts) | Selectivity index SI (A375.S2) (PDL Fibroblasts) | Selectivity index SI (HELA) (PDL Fibroblasts; IC50 on PDL fibroblasts divided by IC50 on HELA) | Cytotoxicity IC50 value, K562 cell line (K562 cell line; SRB, 72 h, 0.1-200 μg/mL range, mean ± SD, value in brackets) | Selectivity index SI (PANC 1) (PDL Fibroblasts; IC50 on PDL fibroblasts divided by IC50 on PANC 1)
CCOC(=O)c1cn(C2CC2)c2c([N+](=O)[O-])c(Nc3ccccc3OC)c(F)cc2c1=O [2A] | lacked antibacterial activity | – | – | – | – | – | – | – | – | – | – | – | – | – | – | – | – | – | – | –
CCn1cc(C(=O)O)c(=O)c2cc(F)c3c(nnn3-c3ccc(OC)cc3OC)c21 [13c, 3-(2,4-dimethoxy-phenyl)-9-ethyl-4-fluoro-6-oxo-6,9-dihydro-3H-[1,2,3] triazolo[4,5-h]quinoline-7-carboxylic acid] | – | 662 µM and 272 µg/mL | 487 µM and 201 µg/mL | 4.15 µM and 1.71 µg/mL | 179 µg/mL | 435 ± 71.7 µM | 28.2 µg/mL | 68.7 ± 8.04 µM | 138 µM and 56.6 µg/mL | 182 µM and 74.7 µg/mL | 172 ± 17.8 µM | 70.6 µg/mL | 41.35 | significantly more potent than ciprofloxacin | – | – | – | – | – | –
COc1ccc(Nc2c(F)cc3c(=O)c(C(=O)O)cn(C4CC4)c3c2N)c(OC)c1 [4g, 8-amino-1-cyclopropyl-7-(2,4-dimethoxy-phenylamino)-6-fluoro-4-oxo-1,4-dihydro-quinoline-3-carboxylic acid] | – | 709 µM and 306 µg/mL | 807 µM and 348 µg/mL | 317 µM and 137 µg/mL | 120 µg/mL | 277 ± 39 µM | – | > 200 µg/mL | 310 µM and 128 µg/mL | 1.01 mM and 435 µg/mL | > 200 µg/mL | – | – | significantly more potent than ciprofloxacin | 0.004 µM (≈ 1.65 ng/mL) | – | – | – | – | –
COc1cccc(Nc2c(F)cc3c(=O)c(C(=O)O)cn(C4CC4)c3c2N)c1 [4b, 8-amino-1-cyclopropyl-6-fluoro-7-(3-methoxy-phenylamino)-4-oxo-1,4-dihydro-quinoline-3-carboxylic acid] | – | 229 µM and 87.6 µg/mL | 120 µM and 46 µg/mL | 177 µM and 67.7 µg/mL | – | – | 6.5 µg/mL | 17 ± 2.57 µM | 155 µM and 59.2 µg/mL | 149 µM and 57.2 µg/mL | 276 ± 20.2 µM | 106 µg/mL | – | – | 0.024 µM (≈ 9.2 ng/mL) | 16.25 | – | – | – | –
CCOC(=O)c1cn(C2CC2)c2c([N+](=O)[O-])c(Nc3ccc(F)cc3)c(F)cc2c1=O [2H] | lacked antibacterial activity | 447 µM and 200 µg/mL | 271 µM and 121 µg/mL | > 200 µg/mL | 647 µg/mL | 1510 ± 68.2 µM | 346 µg/mL | 806 ± 59.2 µM | 485 µM and 208 µg/mL | 833 µM and 344 µg/mL | 560 ± 87.5 µM | 231 µg/mL | – | – | – | – | 2.07 | – | – | –
CCc1ccc(-n2nnc3c4c(cc(F)c32)c(=O)c(C(=O)O)cn4C2CC2)cc1 [5d, 9-cyclopropyl-4-fluoro-3-(4-ethyl-phenyl)-6-oxo-6,9-dihydro-3H-[1,2,3] triazolo[4,5-h]quinoline-7-carboxylic acid] | – | 161 µM and 63 µg/mL | 124 µM and 48.5 µg/mL | 177 µM and 69.1 µg/mL | 447 µg/mL | 1140 ± 82.4 µM | 63.8 µg/mL | 163 ± 22.6 µM | 163 µM and 63.8 µg/mL | 372 µM and 146 µg/mL | 165 ± 16.1 µM | 64.5 µg/mL | – | significantly more potent than ciprofloxacin | – | – | 1.33 | – | – | –
O=C(O)c1cn(C2CC2)c2c([N+](=O)[O-])c(Cl)c(F)cc2c1=O [1A] | incomparably appreciable activity | 57.9 µM and 20.4 µg/mL | 10 µM and 3.52 µg/mL | 3.32 µM and 1.17 µg/mL | 7.02 µg/mL | 19.8 ± 1.48 µM | – | > 200 µg/mL | 59.1 µM and 21 µg/mL | > 200 µg/mL | – | – | – | – | – | – | – | – | – | –
O=C(O)c1cn(C2CC2)c2c([N+](=O)[O-])c(NC3CCCCC3)c(F)cc2c1=O [7a, 7-cyclohexylamino-1-cyclopropyl-6-fluoro-8-nitro-4-oxo-1,4-dihydro-quinoline-3-carboxylic acid] | – | 240 µM and 93.6 µg/mL | 246 µM and 102 µg/mL | > 200 µg/mL | 0.16 µg/mL | 0.4 ± 0.05 µM | 11 µg/mL | 28.2 ± 2.04 µM | 13.2 µM and 5.15 µg/mL | 51.2 µM and 19.9 µg/mL | 29.9 ± 3.56 µM | 11.6 µg/mL | – | – | – | – | – | 74.66 | – | –
Nc1c(NC2CCCCC2)c(F)cc2c(=O)c(C(=O)O)cn(C3CC3)c12 [8a, 8-amino-7-cyclohexylamino-1-cyclopropyl-6-fluoro-4-oxo-1,4-dihydro-quinoline-3-carboxylic acid] | – | 44 µM and 15.8 µg/mL | 3.69 µM and 1.33 µg/mL | > 200 µg/mL | 45 µg/mL | 125 ± 21.9 µM | 24.4 µg/mL | 67.9 ± 6.76 µM | 137 µM and 49.1 µg/mL | 148 µM and 53.2 µg/mL | 49.4 ± 2.71 µM | 17.8 µg/mL | – | – | – | – | 12.48 | – | – | –
COc1cccc(Nc2c(F)cc3c(=O)c(C(=O)O)cn(C4CC4)c3c2[N+](=O)[O-])c1 [3b, 1-cyclopropyl-6-fluoro-7-(3-methoxy-phenylamino)-8-nitro-4-oxo-1,4-dihydro-quinoline-3-carboxylic acid] | – | > 200 µg/mL | > 200 µg/mL | > 200 µg/mL | – | > 200 µg/mL | – | > 200 µg/mL | > 200 µg/mL | > 200 µg/mL | > 200 µg/mL | – | – | – | – | – | – | – | – | –
COc1ccc(Nc2c(F)cc3c(=O)c(C(=O)O)cn(C4CC4)c3c2[N+](=O)[O-])cc1 [3c, 1-cyclopropyl-6-fluoro-7-(4-methoxy-phenylamino)-8-nitro-4-oxo-1,4-dihydro-quinoline-3-carboxylic acid] | – | 64.4 µM and 26.6 µg/mL | 274 µM and 113 µg/mL | 54.2 µM and 22.4 µg/mL | 81.7 µg/mL | 198 ± 11.1 µM | 32.7 µg/mL | 79.1 ± 8.69 µM | 40.7 µM and 16.8 µg/mL | 66 µM and 27.3 µg/mL | 107 ± 5.61 µM | 44.3 µg/mL | – | – | – | – | – | – | 16.83 ± 0.15 µg/mL | 2.63
O=C(O)c1cn(C2CC2)c2cc(N3CCNCC3)c(F)cc2c1=O [ciprofloxacin, reference compound] | – | – | – | – | – | – | – | – | – | – | – | – | – | – | 1.12 µM (≈ 371 ng/mL) | – | – | – | – | –
COc1ccc(-n2nnc3c4c(cc(F)c32)c(=O)c(C(=O)O)cn4C2CC2)c(OC)c1 [5g, 9-cyclopropyl-3-(2,4-dimethoxy-phenyl)-4-fluoro-6-oxo-6,9-dihydro-3H-[1,2,3] triazolo[4,5-h]quinoline-7-carboxylic acid] | – | 474 µM and 205 µg/mL | 272 µM and 118 µg/mL | 143 µM and 61.9 µg/mL | 71.8 µg/mL | 166 ± 26 µM | 24.2 µg/mL | 56 ± 8.04 µM | > 200 µg/mL | 237 µM and 102 µg/mL | 237 ± 13.5 µM | 102 µg/mL | – | – | – | 4.23 | – | – | – | –
